Here are results for 15 compounds from ChEMBL document CHEMBL4411306, “High-throughput screening of novel pyruvate dehydrogenase kinases inhibitors and biological evaluation of their in vitro and in vivo antiproliferative activity” (Eur J Med Chem, 2019).

Data set [1] in a line: Inhibition of porcine PDK assessed as activation of pyruvate dehydrogenase complex measured after 3 mins. More on the design: species or system Sus scrofa.
Data set [2] has as its system NCI-H1975. The data set can be described thus: Inhibition of PDK in human NCI-H1975 cells assessed as reduction in PDH phosphorylation at 10 uM after 12 hrs by Western blot analysis. The data set is classed as cell-based.
The next data set has as its system A549. The data set can be described thus: Antiproliferative activity against human A549 cells assessed as reduction in cell viability after 72 hrs by MTT assay. The data set is classed as functional.
Another data set addresses Heat shock protein HSP90 (Homo sapiens, UniProt P07900+P08238). The experiment in a line: Inhibition of human HSP90 measured after 30 mins by fluorescence polarization assay. The data set is classed as protein assay.
For data set [3], the target named is [Pyruvate dehydrogenase (acetyl-transferring)] kinase isozyme 3, mitochondrial (Homo sapiens, UniProt Q15120). The experiment in a line: Inhibition of recombinant human His-tagged PDK3 expressed in Escherichia coli using PDH E1 as substrate measured after 30 mins by Kinase-Glo luminescence assay.
Sequence of [Pyruvate dehydrogenase (acetyl-transferring)] kinase isozyme 3, mitochondrial (Q15120 whole entry): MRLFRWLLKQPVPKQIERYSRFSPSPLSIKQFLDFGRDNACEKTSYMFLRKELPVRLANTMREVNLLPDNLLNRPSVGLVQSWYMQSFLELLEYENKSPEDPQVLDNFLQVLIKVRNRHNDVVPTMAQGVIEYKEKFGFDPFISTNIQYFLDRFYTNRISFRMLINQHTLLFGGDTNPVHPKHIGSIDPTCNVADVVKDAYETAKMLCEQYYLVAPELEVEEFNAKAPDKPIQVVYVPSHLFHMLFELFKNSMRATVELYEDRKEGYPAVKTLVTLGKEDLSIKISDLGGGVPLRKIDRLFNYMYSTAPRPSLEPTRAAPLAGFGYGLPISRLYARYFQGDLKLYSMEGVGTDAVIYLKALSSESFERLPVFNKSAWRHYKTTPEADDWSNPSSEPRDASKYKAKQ
Data set [4] has as its target T1, [Pyruvate dehydrogenase (acetyl-transferring)] kinase isozyme 1, mitochondrial (Homo sapiens, UniProt Q15118). The data set can be described thus: Inhibition of recombinant human His-tagged PDK1 expressed in Escherichia coli using PDH E1 as substrate measured after 30 mins by Kinase-Glo luminescence assay.
In a further data set the test system is HCT-116. The data set can be described thus: Antiproliferative activity against human HCT116 cells assessed as reduction in cell viability after 72 hrs by MTT assay. The data set is classed as functional.
For data set [5], the target named is T2, [Pyruvate dehydrogenase (acetyl-transferring)] kinase isozyme 2, mitochondrial (Homo sapiens, UniProt Q15119). The data set can be described thus: Inhibition of recombinant human His-tagged PDK2 expressed in Escherichia coli using PDH E1 as substrate measured after 30 mins by Kinase-Glo luminescence assay.
Data set [6] can be described thus: Permeability across human Caco2 cells by liquid scintillation counting method. The data set is classed as ADME, cell-based. The conditions noted are these: caco-2.
Data set [7] has as its system NCI-H1975. The data set can be described thus: Antiproliferative activity against human NCI-H1975 cells assessed as reduction in cell viability after 72 hrs by MTT assay. The data set is classed as functional.
The subject of another data set is MCF7. The experiment in a line: Antiproliferative activity against human MCF7 cells assessed as reduction in cell viability after 72 hrs by MTT assay. The data set is classed as functional.
Data set [8] concerns the target [Pyruvate dehydrogenase (acetyl-transferring)] kinase isozyme 4, mitochondrial (Homo sapiens, UniProt Q16654). The experiment in a line: Inhibition of recombinant human His-tagged PDK4 expressed in Escherichia coli using PDH E1 as substrate measured after 30 mins by Kinase-Glo luminescence assay.
For the next data set, the system named is A-375. The data set can be described thus: Antiproliferative activity against human A375 cells assessed as reduction in cell viability after 72 hrs by MTT assay. The data set is classed as functional.
Data set [9] deals with T1, [Pyruvate dehydrogenase (acetyl-transferring)] kinase isozyme 1, mitochondrial. The experiment in a line: Binding affinity to recombinant human His-tagged PDK1 expressed in Escherichia coli by isothermal calorimetry.
A further data set relates to NCI-H1650. The data set can be described thus: Antiproliferative activity against human NCI-H1650 cells assessed as reduction in cell viability after 72 hrs by MTT assay. The data set is classed as functional.
Data set [10] in a line: Antiproliferative activity against human BEAS2B cells assessed as reduction in cell viability after 72 hrs by MTT assay. The note with it: BEAS-2B cells, read-out: GC50. The data set is classed as cell-based.
In a further data set the test system is HepG2. The experiment in a line: Antiproliferative activity against human HepG2 cells assessed as reduction in cell viability after 72 hrs by MTT assay. The data set is classed as functional.
Data set [11] concerns the target T2, [Pyruvate dehydrogenase (acetyl-transferring)] kinase isozyme 2, mitochondrial. The data set can be described thus: Inhibition of E2-activated human PDHK2.
In data set [12] the test system is NCI-H1975. The experiment in a line: Inhibition of PDK in human NCI-H1975 cells assessed as reduction in PDH phosphorylation at 10 mM after 12 hrs by Western blot analysis. The data set is classed as cell-based.
The target of data set [13] is T1, [Pyruvate dehydrogenase (acetyl-transferring)] kinase isozyme 1, mitochondrial. The conditions noted are these: NCI-H1975, 10 mM.
Description: Inhibition of PDK1 in human NCI-H1975 cells assessed as switch of pyruvate metabolism from lactate production to oxidative phosphorylation by measuring decrease in extracellular acidification rate at 10 mM measured after 4 hrs by XFe24 extracellular flux analyzer based assay
Data set [14] has the same target. The conditions noted are these: NCI-H1975, 10 mM. This is another data set of the same source.
Description: Inhibition of PDK1 in human NCI-H1975 cells assessed as switch of pyruvate metabolism from lactate production to oxidative phosphorylation by measuring increase in oxygen consumption rates at 10 mM measured after 4 hrs by XFe24 extracellular flux analyzer based assay
The species entered for another data set is Sus scrofa. The data set can be described thus: Inhibition of porcine PDK assessed as activation of pyruvate dehydrogenase complex at 10 mM measured after 3 mins relative to control.
Data set [15] has as its target T1, [Pyruvate dehydrogenase (acetyl-transferring)] kinase isozyme 1, mitochondrial. The conditions noted are these: NCI-H1975, 10 mM. This is another data set of the same source.
Description: Inhibition of PDK1 in human NCI-H1975 cells assessed as switch of pyruvate metabolism from lactate production to oxidative phosphorylation by measuring by measuring reduction in lactate formation at 10 mM measured after 4 hrs
Data set [16] relates to NCI-H1975. The data set can be described thus: Inhibition of PDK in human NCI-H1975 cells assessed as reduction in PDH phosphorylation at Ser293 residue at 10 mM by ELISA. The data set is classed as cell-based.

pEC50, pIC50, pKd: −log10 of the molar value. Activity calls are given as the source filed them. No cut-off for these calls is given here.

T1 sequence (Q15118 whole entry): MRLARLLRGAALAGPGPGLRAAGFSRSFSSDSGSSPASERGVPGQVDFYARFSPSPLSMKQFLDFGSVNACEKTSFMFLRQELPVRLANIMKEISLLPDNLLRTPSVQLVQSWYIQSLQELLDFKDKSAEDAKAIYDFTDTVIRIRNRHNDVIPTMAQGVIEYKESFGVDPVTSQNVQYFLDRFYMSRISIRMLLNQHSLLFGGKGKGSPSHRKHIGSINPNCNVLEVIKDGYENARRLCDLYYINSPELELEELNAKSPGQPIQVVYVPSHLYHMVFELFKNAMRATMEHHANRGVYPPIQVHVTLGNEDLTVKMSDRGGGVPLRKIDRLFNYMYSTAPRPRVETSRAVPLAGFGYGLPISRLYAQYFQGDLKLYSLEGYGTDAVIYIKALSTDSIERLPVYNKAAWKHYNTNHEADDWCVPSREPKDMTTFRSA
Sequence of [Pyruvate dehydrogenase (acetyl-transferring)] kinase isozyme 4, mitochondrial (Q16654 whole entry): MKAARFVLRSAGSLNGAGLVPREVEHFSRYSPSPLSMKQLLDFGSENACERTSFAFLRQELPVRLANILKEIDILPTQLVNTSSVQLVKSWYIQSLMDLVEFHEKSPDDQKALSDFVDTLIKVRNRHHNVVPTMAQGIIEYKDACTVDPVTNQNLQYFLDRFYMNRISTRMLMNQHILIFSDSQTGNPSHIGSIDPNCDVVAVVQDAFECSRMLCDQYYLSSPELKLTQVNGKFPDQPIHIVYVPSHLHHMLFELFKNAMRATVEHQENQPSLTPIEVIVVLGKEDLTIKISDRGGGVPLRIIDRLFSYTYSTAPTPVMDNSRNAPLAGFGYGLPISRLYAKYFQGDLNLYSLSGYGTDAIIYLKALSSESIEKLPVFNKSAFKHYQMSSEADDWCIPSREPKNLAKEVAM

As for `Cc1cnc(Cl)nc1-c1ccc(N(Cc2ccc(CNC(=O)C(F)F)cc2)C(=O)c2ccc(O)cc2O)cc1`, the pEC50 in [1] is 6.92.
On to `CC(=O)N[C@@H](Cc1c[nH]c2ccccc12)C(=O)NCCOc1ccc(C2CCCCC2)cc1`, for which the “reduction in PDH phosphorylation (qualitative)” value (“reduction in PDH phosphorylation” below) with NCI-H1975 [2] is “Active”. In data set [1], the pEC50 is 5.46.
`CC(C)CNS(=O)(=O)c1ccc(OCC(=O)N(Cc2ccccc2)Cc2ccccc2)cc1`: the “reduction in PDH phosphorylation” value in the data set with NCI-H1975 [2] was “Active”. Moreover, the Activity result with A549, in the data set with HCT-116, with NCI-H1975 [7], with MCF7, in the data set on A-375 and in the data set on NCI-H1650 was “Dose-dependent effect” throughout. Also, in the data set with HepG2, the Activity entry is “Dose-dependent effect”. Moreover, the GC50 in the data set with A549 was 17.5 µM; with HCT-116 it was above 20 µM; in the data set on NCI-H1975 [7], above 20 µM; with MCF7, above 20 µM; in the data set with A-375, 12.3 µM; in the data set on NCI-H1650, above 20 µM. For the same compound, in the data set with HepG2, the GC50 came to 18.2 µM. Further, in [1], the pEC50 is 5.85. In addition, on Heat shock protein HSP90, the IC50 was determined as 3.58 µM. The negative logarithm of the IC50 (pIC50) in data set [3] is 5.31; in data set [4] it was 6.05; in data set [5], 5.23; in data set [8], 5.16. The Papp in data set [6] came to 1.14 ×10⁻⁶ cm/s. Besides, the pKd in data set [9] is 5.83. In addition, the GI50 at 72 h in data set [10] is above 20 µM.
Turning to `COc1ccc(-c2nnn(CC(=O)Nc3cccc(F)c3)n2)cc1`, in the data set with NCI-H1975 [2], the “reduction in PDH phosphorylation” value is “Active”. The pEC50 in [1] was 5.16.
Consider `COc1ccc(C(=O)CSc2nnc(CNc3ccccc3OC)n2-c2ccccc2)cc1`, for which the “reduction in PDH phosphorylation” value with NCI-H1975 [2] is “Active”. In data set [1], the pEC50 is 5.28.
For `CC(C)Cc1ccc(C(C)C(=O)O)cc1` (centres undefined) [IBUPROFEN], the Papp in data set [6] stood at 47.2 ×10⁻⁶ cm/s.
Regarding `CCOc1ccc([C@@H]2C(C(=O)Nc3cccnc3)=C(C)Nc3nc(CCCO)nn32)cc1`, the “reduction in PDH phosphorylation” value with NCI-H1975 [2] was “Active”. The pEC50 in data set [1] was 5.23.
For the compound `C[C@@H]1CN(C(=O)[C@](C)(O)C(F)(F)F)[C@@H](C)CN1C(=O)c1ccc(C#N)cc1`, in [11], the pIC50 is 8.11.
Consider `C[C@H]1CCc2c(sc3nc(SCCN4CCCC4)n(N)c(=O)c23)C1`, for which the “reduction in PDH phosphorylation” value with NCI-H1975 [2] is “Active”. The Activity entry in the data set on A549, in the data set with HCT-116, in the data set on NCI-H1975 [7], in the data set on MCF7, in the data set with A-375 and with NCI-H1650 was “Dose-dependent effect” in each case. Besides, the Activity entry in the data set on HepG2 was “Dose-dependent effect”. Further, the GC50 was above 20 µM in the data set on A549; above 20 µM in the data set with HCT-116; 15.6 µM in the data set on NCI-H1975 [7]; above 20 µM in the data set on MCF7; above 20 µM in the data set with A-375; 16.3 µM in the data set on NCI-H1650. Moreover, in the data set with HepG2, the GC50 is above 20 µM. Further, the pEC50 in [1] was 5.80. In addition, the IC50 at Heat shock protein HSP90 turned out to be 2.7 µM. Further, the pIC50 in data set [3] was 5.08; in data set [4], 5.23; in data set [5] it was 4.98; in [8], 4.83. In [6], this compound yielded a Papp of 0.96 ×10⁻⁶ cm/s. In data set [9], the pKd was 5.46. Also, the GI50 at 72 h in [10] is above 20 µM.
`O=C(c1ccccc1)C(Cl)Cl`: the “reduction in PDH phosphorylation” value with NCI-H1975 [2] was “Active”. Moreover, the pEC50 in data set [1] is below 3.00.
In the same order, the values of `O=C(Nc1ccc(Cl)cc1C(=O)N1CCCC[C@@H]1CCO)c1ccc(Cl)cc1Cl` are “Active” and 5.08.
Regarding `O=C(O)C(Cl)Cl` [DICHLOROACETIC ACID], the inhibition result (with NCI-H1975 [12]; in [13]; in data set [14]; in [15]; in the data set with NCI-H1975 [16]) was “Active” in each case. Moreover, the pEC50 in data set [1] was below 4.00. The inhibition in the data set filed under Sus scrofa amounted to 54.8%.
Take `CN(C)C(=O)c1ccc(S(=O)(=O)c2ccc(NC(=O)[C@@](C)(O)C(F)(F)F)c(Cl)c2)cc1`: the pIC50 in data set [11] is 7.10.
In data set [6], `COc1cccc2c1C(=O)c1c(O)c3c(c(O)c1C2=O)C[C@@](O)(C(=O)CO)C[C@@H]3O[C@H]1C[C@H](N)[C@H](O)[C@H](C)O1` [DOXORUBICIN] registered a Papp of 0.21 ×10⁻⁶ cm/s.
Take `Cc1ccc(NC(=O)CSc2c[nH]c(-c3ccccc3O)n2)cc1`: the “reduction in PDH phosphorylation” value in the data set with NCI-H1975 [2] was “Active”. Moreover, in data set [1], the pEC50 is 5.34.
